Literature values as cited in patent publication US9403784B1, “Fumarate compounds, pharmaceutical compositions thereof, and methods of use” (priority 2015, dated 2016).

**Q.** Which aqueous solubility does the source give for `COC(=O)/C=C/C(=O)OC` [DMF, dimethylfumarate] here?
**A.** poor aqueous solubility
